The results in this text go back to patent publication US9229013B2, “Vasoactive hormone-based stratification of patients suffering from diseases related to endothelial function/dysfunction” (B.R.A.H.M.S GMBH, priority 2009, dated 2016).

The subject of the assay is patients having suffered from ischemic or haemorrhagic stroke or TIA. The assay is described as follows: COSMOS study: survival (deaths), hazard ratio medication vs no medication, stratified by biomarker quintile. In kind it is in vivo, human. From the text: Suitable threshold levels for the stratification of subjects into different groups (categories) have to be determined for each particular combination of vasoactive hormone or fragments thereof or precursors or fragments thereof, medication and disease. This can e.g. be done by grouping a reference population of patients according to their level of vasoactive hormone into certain quantiles, e.g. tertiles, quartiles, quintiles or even according to suitable percentiles. […] A HR around 1 (e.g. +/−0.1) indicates no elevated risk but also no benefit from medication for the particular group of patients. By comparison of the HR between certain quantiles of patients with each other and with the HR of the overall population of patients, it is possible to identify those quantiles of patients who have an elevated risk and those who benefit from medication and thereby stratify subjects according to the present invention.
FIGS. 9 to 13 illustrate the survival rate for patients suffering from ischemic stroke, hemorrhagic stroke or transient ischemic attack from the “Copeptin to guide disease severity and Management, Osmostatus and Stress” (“COSMOS”).
The study was set at the emergency and neurological and neurosurgical clinic of the University Hospital of Basel. All consecutive patients who are admitted to the emergency department with an ischemic or hemorrhagic stroke or transient ischemic attack (TIA) according to the World Health Organization criteria with symptom onset within the last 3 days were included into the study. Patients without an informed consent were excluded.
Step 5. In patients with ischemic stroke a telephone follow-up regarding morbidity and mortality (as assessed by the Barthel Index and Ranking Scale) will be obtained after 3 months. An unfavorable outcome will be defined as a Barthel index <85 or modified Ranking scale of 3 to 6. II) Post-Myocardial Infarction (MI) Patients (Leicester Acute Myocardial Infarction Peptide Study (“LAMP”)) Study Population:
Survival rates, i.e. the proportion of patients surviving at a given time after entry into the studies, are plotted in the appended figures over time for different combinations of a particular vasoactive hormone with a particular medication. The patients have been stratified into quintiles according to their respective hormone levels. […] For some cases, two or more quintiles have been pooled were appropriate. Hazard ratios (HR) have been calculated for various combinations of particular vasoactive hormones with particular medications. HR have also been calculated for particular quintiles and/or pooled quintiles and compared to overall HR for each combination.
Table 2 lists the results for the patients from the COSMOS study (patients having suffered from ischemic or haemorrhagic stroke or TIA).

Where [1] appears, read: COSMOS study, summary of Table 2.

For the molecule `COC(=O)[C@H](c1ccccc1Cl)N1CCc2sccc2C1` [Plavix], under setting [1], the “effect of administration at high (higher) levels of vasoactive hormones” value is recorded as “positive effect” and the “effect of administration at low (lower) levels of vasoactive hormones” value is recorded as “unfavourable effect”. For the same molecule, the “HR Medicament Marker-Quintile 1” value (COSMOS, MR-proADM 0.05-0.47 nmol/L) was determined as 1.8. The “HR Medicament Marker-Quintile 2-4” value (COSMOS, MR-proADM 0.47-0.91 nmol/L) is recorded as 0.2. Also, the “HR Medicament Marker-Quintile 5” value (COSMOS, MR-proADM 0.91-5.49 nmol/L) is reported as 0.1. Also, the “HR Medicament (overall patient group)” value (COSMOS, biomarker MR-proADM) was 0.3.
